Experimental data taken from ChEMBL document CHEMBL1201862, “PubChem BioAssay data set” (2004).
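Method: 48-hour compound exposure of cells in 96-well plates, five concentrations, linear interpolation of endpoints. Abbreviation: GI50, concentration required for 50% inhibition of growth.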 Activity calls are given as the source filed them. Cut-off read from the data, not from the text of the source: active = GI50 up to about 1.1 µM and inactive = higher.

Experiments:
Test in all cases: growth of human tumour cells (NCI), 48 h
A498 = test system: A498
U-251 = test system: U-251
COLO 205 = test system: COLO 205
HOP-62 = test system: HOP-62
NCI-H226 = test system: NCI-H226
IGROV-1 = test system: IGROV-1
SK-MEL-2 = test system: SK-MEL-2
KM-20L2 = test system: KM-20L2
OVCAR-8 = test system: OVCAR-8
KM12 = test system: KM12
CCRF-CEM = test system: CCRF-CEM
TK-10 = test system: TK-10
OVCAR-4 = test system: OVCAR-4
K562 = test system: K562
Malme-3M = test system: Malme-3M
UACC-257 = test system: UACC-257
LOX IMVI = test system: LOX IMVI
SF-295 = test system: SF-295
OVCAR-5 = test system: OVCAR-5

Structure (SMILES) | GI50 (A498) | GI50 (U-251) | GI50 (COLO 205) | GI50 (HOP-62) | GI50 (NCI-H226) | GI50 (IGROV-1) | GI50 (SK-MEL-2) | GI50 (KM-20L2) | GI50 (OVCAR-8) | GI50 (KM12) | GI50 (CCRF-CEM) | GI50 (TK-10) | GI50 (OVCAR-4) | GI50 (K562) | GI50 (Malme-3M) | GI50 (UACC-257) | GI50 (LOX IMVI) | GI50 (SF-295) | GI50 (OVCAR-5)
COC(=O)c1c(OC(=O)c2ccccc2)noc1CC(=O)OC1C=CCCC1 (stereo not given) | 68.5 µM (inactive) | > 100 µM (inactive) | > 100 µM (inactive) | > 100 µM (inactive) | > 100 µM (inactive) | > 100 µM (inactive) | > 100 µM (inactive) | > 100 µM (inactive) | > 100 µM (inactive) | > 100 µM (inactive) | 80 µM (inactive) | > 100 µM (inactive) | > 100 µM (inactive) | 72.6 µM (inactive) | > 100 µM (inactive) | 95.5 µM (inactive) |  |  | 
C/N=C1\CC2c3cc(OC)c(OC)cc3CCN2C2=C1C(=O)CC(C)(C)C2 (stereo not given) | > 100 µM (inactive) | > 100 µM (inactive) | > 100 µM (inactive) |  | > 100 µM (inactive) |  | > 100 µM (inactive) | > 100 µM (inactive) | > 100 µM (inactive) | > 100 µM (inactive) | > 100 µM (inactive) | > 100 µM (inactive) |  |  | > 100 µM (inactive) | > 100 µM (inactive) | > 100 µM (inactive) | > 100 µM (inactive) | > 100 µM (inactive)
COC(=O)Nc1nc2cc(Br)ccc2[nH]1 | 67.8 µM (inactive) | 22.8 µM (inactive) | 23.8 µM (inactive) | 57.3 µM (inactive) | > 100 µM (inactive) | 35.9 µM (inactive) | 16.1 µM (inactive) | 21.2 µM (inactive) | 32.6 µM (inactive) | 9.29 µM (inactive) | 32.2 µM (inactive) | 58.7 µM (inactive) | > 100 µM (inactive) | 17.6 µM (inactive) | 37.1 µM (inactive) | > 100 µM (inactive) | > 100 µM (inactive) | 30.7 µM (inactive) | 60.1 µM (inactive)
CC1=C(c2cc(C(=O)Nc3cc(C)ccc3C)nc(N)n2)Sc2ccccc2N1 | > 100 µM (inactive) | > 100 µM (inactive) | > 100 µM (inactive) | > 100 µM (inactive) | > 100 µM (inactive) | > 100 µM (inactive) | > 100 µM (inactive) | > 100 µM (inactive) | > 100 µM (inactive) | > 100 µM (inactive) | > 100 µM (inactive) | > 100 µM (inactive) | > 100 µM (inactive) | > 100 µM (inactive) | > 100 µM (inactive) | > 100 µM (inactive) | > 100 µM (inactive) | > 100 µM (inactive) | > 100 µM (inactive)
NN/C(Cc1ccccc1)=N\NO | > 100 µM (inactive) |  | > 100 µM (inactive) |  | > 100 µM (inactive) | > 100 µM (inactive) | > 100 µM (inactive) | 32.5 µM (inactive) |  | 17.4 µM (inactive) | 39.8 µM (inactive) | > 100 µM (inactive) | > 100 µM (inactive) | 85.7 µM (inactive) | > 100 µM (inactive) | > 100 µM (inactive) | 33.3 µM (inactive) | > 100 µM (inactive) | > 100 µM (inactive)
C=CCOC(=O)C1CCC(=O)N1C(=O)C(Cl)Cl (stereo not given) | > 100 µM (inactive) | > 100 µM (inactive) | > 100 µM (inactive) | > 100 µM (inactive) | > 100 µM (inactive) | > 100 µM (inactive) | > 100 µM (inactive) | > 100 µM (inactive) | > 100 µM (inactive) | > 100 µM (inactive) | > 100 µM (inactive) | > 100 µM (inactive) | > 100 µM (inactive) | > 100 µM (inactive) | > 100 µM (inactive) | > 100 µM (inactive) | > 100 µM (inactive) | > 100 µM (inactive) | > 100 µM (inactive)
Cc1ccc(Nc2ccc(Nc3ccc(C)cc3S(=O)(=O)O)c3c2C(=O)c2ccccc2C3=O)c(S(=O)(=O)O)c1 | > 100 µM (inactive) | > 100 µM (inactive) | > 100 µM (inactive) | > 100 µM (inactive) | > 100 µM (inactive) | > 100 µM (inactive) | > 100 µM (inactive) | > 100 µM (inactive) | > 100 µM (inactive) | > 100 µM (inactive) | > 100 µM (inactive) | > 100 µM (inactive) | > 100 µM (inactive) | > 100 µM (inactive) | > 100 µM (inactive) | > 100 µM (inactive) |  |  | 
CC1=Cc2cccc(C)c2C(=O)C1=O [O-HIBISCANONE] | 17.1 µM (inactive) | 10.8 µM (inactive) | 1.91 µM (inactive) | 17.5 µM (inactive) | 15.8 µM (inactive) | 15.6 µM (inactive) | 17.3 µM (inactive) | 18.9 µM (inactive) | 5.85 µM (inactive) | 4.71 µM (inactive) | 0.379 µM (active) | 2.39 µM (inactive) | 5.31 µM (inactive) | 0.617 µM (active) | 1.8 µM (inactive) | 2.16 µM (inactive) | 8.77 µM (inactive) | 5.14 µM (inactive) | 19 µM (inactive)
CCn1c2c(c3ccccc31)[C@@H](c1ccc(Cl)cc1)CC1C(=O)N(c3ccccc3)C(=O)C21 (stereo not given in full) | 69.7 µM (inactive) | 52.6 µM (inactive) | > 100 µM (inactive) | 85.5 µM (inactive) | 45.6 µM (inactive) | > 100 µM (inactive) | 91.8 µM (inactive) | > 100 µM (inactive) | > 100 µM (inactive) | > 100 µM (inactive) | 63.2 µM (inactive) | > 100 µM (inactive) | > 100 µM (inactive) | 77.3 µM (inactive) | 70.6 µM (inactive) | > 100 µM (inactive) | > 100 µM (inactive) | 59.3 µM (inactive) | > 100 µM (inactive)
N#Cc1ccccc1NC(=O)C(=O)C1NC(=S)NC1=O (stereo not given) | > 100 µM (inactive) | > 100 µM (inactive) | > 100 µM (inactive) | > 100 µM (inactive) | > 100 µM (inactive) | > 100 µM (inactive) |  | > 100 µM (inactive) | > 100 µM (inactive) | > 100 µM (inactive) | > 100 µM (inactive) | > 100 µM (inactive) | > 100 µM (inactive) | > 100 µM (inactive) | > 100 µM (inactive) | > 100 µM (inactive) | > 100 µM (inactive) | > 100 µM (inactive) | > 100 µM (inactive)
CCOc1ccccc1/N=C(/NC(=O)CC)SC | > 10 µM (inactive) | > 10 µM (inactive) | > 10 µM (inactive) | > 10 µM (inactive) | > 10 µM (inactive) | > 10 µM (inactive) | 38.7 µM (inactive) | > 10 µM (inactive) | 57 µM (inactive) | > 10 µM (inactive) | 64.6 µM (inactive) | > 10 µM (inactive) | 85.1 µM (inactive) | > 10 µM (inactive) | 67.1 µM (inactive) | > 10 µM (inactive) | > 10 µM (inactive) | > 10 µM (inactive) | > 10 µM (inactive)
